Laboratory results reported in ChEMBL document CHEMBL5053509, “Development of a Selective Dual Discoidin Domain Receptor (DDR)/p38 Kinase Chemical Probe” (J Med Chem, 2021).

Experiment: Metabolic stability in human liver microsomes assessed as parent compound remaining after 240 mins incubation by LC-MS/MS analysis
Format: ADME, Microsome
Conditions: read-out: Stability

Row | remaining at 4 h [%] | Structure (SMILES)
1 | 44 | CS(=O)(=O)N1CCCC(NC(=O)[C@H](CCC2CCCCC2)NC(=O)c2ccc(CNC(=O)c3cnc4ccccn34)cc2)C1 (mixture of isomers) [SR-302]
2 | 44 | CS(=O)(=O)N1CCC[C@H](NC(=O)[C@H](CCC2CCCCC2)NC(=O)c2ccc(CNC(=O)c3cnn(-c4ccccc4)c3N)cc2)C1
